Where two headings read alike, the source gives them in different places.
Assays:
[1] = biological target: T1, full-length human CSNK1A1 (Homo sapiens, UniProt P48729); experiment: CSNK1A1 Assay 2 (ADP-Glo, 1 μM ATP, substrate biotin-Ahx-KRRRAL-pS-VASLPGL); assay type: biochemical; conditions: Table 3, read-out: CSNK1A1 Assay 2 IC50 [mol/l] (median)
T1 construct: N-terminal Glutathion-S-Transferase (GST) and full-length human CSNK1A1; purchased Life Technologies PV4174; host or cells: baculovirus infected insect cells
Method in brief: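 GST-tagged full-length human CSNK1A1 from baculovirus-infected insect cells (about 0.0375 ng/μL), preincubated 15 min at 22 °C with compound in HEPES pH 7.5 buffer, with 1 μM ATP and biotin-Ahx-KRRRAL-pS-VASLPGL substrate. ADP formed read by ADP-Glo luminescence.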

[2] = biological target: T2, wild-type Epidermal Growth Factor Receptor (EGFR) (Homo sapiens, UniProt P00533); experiment: WT-EGFR Kinase Assay (TR-FRET, 2 mM ATP); assay type: biochemical
T2 construct: a fragment of human EGFR (amino acids R669 to A1210); made in house; host or cells: Sf9 insect cells
Method in brief: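 GST-fused human EGFR fragment (R669-A1210) from Sf9 cells, typically 7.6 pg/μL, pre-incubated with compound 15 min at 22° C in Hepes pH 7.0 buffer with MgCl2, DTT and vanadate; biotinylated peptide substrate. After EDTA stop, phosphopeptide detected by TR-FRET (anti-phosphotyrosine Tb-cryptate/streptavidin-XL665), 665/620 nm emission ratio.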

[3] = EGFR Wildtyp 2 mM ATP IC50 [mol/l] (median), Table 4
[4] = read-out: EGFR Wildtyp 2 mM ATP IC50 [mol/l] (median), Table 4

T2 sequence (P00533 669-1210): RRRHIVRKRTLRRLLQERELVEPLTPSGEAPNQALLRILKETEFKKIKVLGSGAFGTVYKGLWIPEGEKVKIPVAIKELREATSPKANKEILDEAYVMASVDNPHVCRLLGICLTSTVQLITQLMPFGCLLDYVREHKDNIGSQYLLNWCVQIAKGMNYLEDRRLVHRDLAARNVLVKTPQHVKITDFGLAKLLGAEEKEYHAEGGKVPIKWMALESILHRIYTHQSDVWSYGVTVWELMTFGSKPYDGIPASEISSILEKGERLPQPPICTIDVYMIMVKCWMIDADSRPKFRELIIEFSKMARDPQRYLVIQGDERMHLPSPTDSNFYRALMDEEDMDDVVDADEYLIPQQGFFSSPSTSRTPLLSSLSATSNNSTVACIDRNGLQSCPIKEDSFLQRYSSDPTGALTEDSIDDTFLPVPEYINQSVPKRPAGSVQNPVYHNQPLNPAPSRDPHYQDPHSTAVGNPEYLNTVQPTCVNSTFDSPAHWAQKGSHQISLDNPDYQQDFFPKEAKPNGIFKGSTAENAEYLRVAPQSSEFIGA
T1 sequence (P48729 whole entry): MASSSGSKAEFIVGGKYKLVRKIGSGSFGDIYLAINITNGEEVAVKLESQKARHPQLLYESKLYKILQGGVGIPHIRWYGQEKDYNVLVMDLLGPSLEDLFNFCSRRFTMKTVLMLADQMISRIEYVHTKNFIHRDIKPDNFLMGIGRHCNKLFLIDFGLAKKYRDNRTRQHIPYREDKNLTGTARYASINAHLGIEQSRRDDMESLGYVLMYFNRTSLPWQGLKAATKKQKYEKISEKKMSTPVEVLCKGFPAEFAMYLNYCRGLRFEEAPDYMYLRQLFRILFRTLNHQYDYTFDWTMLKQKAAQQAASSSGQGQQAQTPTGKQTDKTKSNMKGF

SMILES	IC50 [1]	IC50 [2, 3]	IC50 [2, 4]
O=C(Nc1cc(-c2[nH]c3c(CC4CC4)cc(F)nc3c2-c2ccccn2)ccn1)C(CC(F)F)c1ccc(F)cc1 (single isomer, unassigned) [Example 47, (2R or S)—N-{4-[7-(cyclopropylmethyl)-5-fluoro-3-(pyridin-2-yl)-1H-pyrrolo[3,2-b]pyridin-2-yl]pyridin-2-yl}-4,4-difluoro-2-(4-fluorophenyl)butanamide]	31.6 nM	> 20000 nM	
O=C(Nc1cc(-c2[nH]c3c(CC4CC4)cc(F)nc3c2-c2ccccn2)ccn1)C(CC(F)F)c1ccc(F)cc1 (single isomer, unassigned) [Example 48, (2R or S)—N-{4-[7-(cyclopropylmethyl)-5-fluoro-3-(pyridin-2-yl)-1H-pyrrolo[3,2-b]pyridin-2-yl]pyridin-2-yl}-4,4-difluoro-2-(4-fluorophenyl)butanamide]	9.91 nM		> 20000 nM
O=C(Nc1cc(-c2[nH]c3c(N4CCNCC4)ccnc3c2-c2ccccn2)ccn1)C(CC(F)F)c1ccc(F)cc1 (single isomer, unassigned) [Example 93, (2R or S)-4,4-difluoro-2-(4-fluorophenyl)-N-{4-[7-(piperazin-1-yl)-3-(pyridin-2-yl)-1H-pyrrolo[3,2-b]pyridin-2-yl]pyridin-2-yl}butanamide]	5.35 nM	> 20000 nM	
O=C(Nc1cc(-c2[nH]c3c(N4CCNCC4)ccnc3c2-c2ccccn2)ccn1)C(CC(F)F)c1ccc(F)cc1 (single isomer, unassigned) [Example 94, (2R or S)-4,4-difluoro-2-(4-fluorophenyl)-N-{4-[7-(piperazin-1-yl)-3-(pyridin-2-yl)-1H-pyrrolo[3,2-b]pyridin-2-yl]pyridin-2-yl}butanamide]	2.31 nM		> 20000 nM
O=C(Nc1cc(-c2[nH]c3ccc(F)nc3c2-c2cc(F)ccn2)ccn1)C(CC(F)F)c1ccc(F)cc1 (single isomer, unassigned) [Example 96, (2R or S)-4,4-difluoro-N-{4-[5-fluoro-3-(4-fluoropyridin-2-yl)-1H-pyrrolo[3,2-b]pyridin-2-yl]pyridin-2-yl}-2-(4-fluorophenyl)butanamide]	4.67 nM	> 20000 nM	
O=C(Nc1cc(-c2[nH]c3ccc(F)nc3c2-c2cc(F)ccn2)ccn1)C(CC(F)F)c1ccc(F)cc1 (single isomer, unassigned) [Example 97, (2R or S)-4,4-difluoro-N-{4-[5-fluoro-3-(4-fluoropyridin-2-yl)-1H-pyrrolo[3,2-b]pyridin-2-yl]pyridin-2-yl}-2-(4-fluorophenyl)butanamide]	36 nM		> 20000 nM
CC(C)(O)c1cc(F)nc2c(-c3ccccn3)c(-c3ccnc(NC(=O)C(CC(F)F)c4ccc(F)cc4)c3)[nH]c12 (single isomer, unassigned) [Example 99, (2R or S)-4,4-difluoro-N-{4-[5-fluoro-7-(2-hydroxypropan-2-yl)-3-(pyridin-2-yl)-1H-pyrrolo[3,2-b]pyridin-2-yl]pyridin-2-yl}-2-(4-fluorophenyl)butanamide]	3.55 nM	> 20000 nM	
CC(C)(O)c1cc(F)nc2c(-c3ccccn3)c(-c3ccnc(NC(=O)C(CC(F)F)c4ccc(F)cc4)c3)[nH]c12 (single isomer, unassigned) [Example 100, (2R or S)-4,4-difluoro-N-{4-[5-fluoro-7-(2-hydroxypropan-2-yl)-3-(pyridin-2-yl)-1H-pyrrolo[3,2-b]pyridin-2-yl]pyridin-2-yl}-2-(4-fluorophenyl)butanamide]	33.6 nM		> 20000 nM
COc1cnc2c(-c3ccccn3)c(-c3ccnc(NC(=O)C(CC(F)F)c4ccc(F)cc4)c3)[nH]c2n1 (single isomer, unassigned) [Example 102, 4,4-difluoro-2-(4-fluorophenyl)-N-{4-[3-methoxy-7-(pyridin-2-yl)-5H-pyrrolo[2,3-b]pyrazin-6-yl]pyridin-2-yl}butanamide]	31.1 nM	> 20000 nM	
COc1cnc2c(-c3ccccn3)c(-c3ccnc(NC(=O)C(CC(F)F)c4ccc(F)cc4)c3)[nH]c2n1 (single isomer, unassigned) [Example 103, 4,4-difluoro-2-(4-fluorophenyl)-N-{4-[3-methoxy-7-(pyridin-2-yl)-5H-pyrrolo[2,3-b]pyrazin-6-yl]pyridin-2-yl}butanamide]	1.97 nM		> 20000 nM
O=C(Nc1cc(-c2[nH]c3c(C4CCCO4)cc(F)nc3c2-c2ccccn2)ccn1)C(CC(F)F)c1ccc(F)cc1 (single isomer, unassigned) [Example 115, (2R or S)-4,4-difluoro-N-(4-{5-fluoro-7-[(2R or S)-oxolan-2-yl]-3-(pyridin-2-yl)-1H-pyrrolo[3,2-b]pyridin-2-yl}pyridin-2-yl)-2-(4-fluorophenyl)butanamide]	5.84 nM	19600 nM	
O=C(Nc1cc(-c2[nH]c3c(C4CCCO4)cc(F)nc3c2-c2ccccn2)ccn1)C(CC(F)F)c1ccc(F)cc1 (single isomer, unassigned) [Example 116, (2R or S)-4,4-difluoro-N-(4-{5-fluoro-7-[(2R or S)-oxolan-2-yl]-3-(pyridin-2-yl)-1H-pyrrolo[3,2-b]pyridin-2-yl}pyridin-2-yl)-2-(4-fluorophenyl)butanamide]	5.1 nM	15100 nM	
O=C(Nc1cc(-c2[nH]c3c(C4CCCO4)cc(F)nc3c2-c2ccccn2)ccn1)C(CC(F)F)c1ccc(F)cc1 (single isomer, unassigned) [Example 117, (2R or S)-4,4-difluoro-N-(4-{5-fluoro-7-[(2R or S)-oxolan-2-yl]-3-(pyridin-2-yl)-1H-pyrrolo[3,2-b]pyridin-2-yl}pyridin-2-yl)-2-(4-fluorophenyl)butanamide]	9.89 nM	> 20000 nM	
O=C(Nc1cc(-c2[nH]c3c(C4CCCO4)cc(F)nc3c2-c2ccccn2)ccn1)C(CC(F)F)c1ccc(F)cc1 (single isomer, unassigned) [Example 118, (2R or S)-4,4-difluoro-N-(4-{5-fluoro-7-[(2R or S)-oxolan-2-yl]-3-(pyridin-2-yl)-1H-pyrrolo[3,2-b]pyridin-2-yl}pyridin-2-yl)-2-(4-fluorophenyl)butanamide]	66.9 nM	> 20000 nM	
O=C(Nc1cc(-c2[nH]c3nccnc3c2-c2ccccn2)ccn1)C(CC(F)(F)F)c1ccc(F)cc1 (single isomer, unassigned) [Example 120, (2R or S)-4,4,4-trifluoro-2-(4-fluorophenyl)-N-{4-[7-(pyridin-2-yl)-5H-pyrrolo[2,3-b]pyrazin-6-yl]pyridin-2-yl}butanamide]	1.36 nM	> 20000 nM	
O=C(Nc1cc(-c2[nH]c3nccnc3c2-c2ccccn2)ccn1)C(CC(F)(F)F)c1ccc(F)cc1 (single isomer, unassigned) [Example 121, (2R or S)-4,4,4-trifluoro-2-(4-fluorophenyl)-N-{4-[7-(pyridin-2-yl)-5H-pyrrolo[2,3-b]pyrazin-6-yl]pyridin-2-yl}butanamide]	29.4 nM		> 20000 nM
O=C(Nc1cc(-c2[nH]c3c(OCC(F)(F)F)ncnc3c2-c2ccccn2)ccn1)C(CC(F)F)c1ccc(F)cc1 (single isomer, unassigned) [Example 123, (2R or S)-4,4-difluoro-2-(4-fluorophenyl)-N-{4-[7-(pyridin-2-yl)-4-(2,2,2-trifluoroethoxy)-5H-pyrrolo[3,2-d]pyrimidin-6-yl]pyridin-2-yl}butanamide]	4.5 nM	> 20000 nM	
O=C(Nc1cc(-c2[nH]c3c(OCC(F)(F)F)ncnc3c2-c2ccccn2)ccn1)C(CC(F)F)c1ccc(F)cc1 (single isomer, unassigned) [Example 124, (2R or S)-4,4-difluoro-2-(4-fluorophenyl)-N-{4-[7-(pyridin-2-yl)-4-(2,2,2-trifluoroethoxy)-5H-pyrrolo[3,2-d]pyrimidin-6-yl]pyridin-2-yl}butanamide]	30 nM		> 20000 nM
O=C(Nc1cc(-c2[nH]c3c(OCC(F)(F)F)ncnc3c2-c2ccccn2)ccn1)C(CC(F)(F)F)c1ccc(F)cc1 (single isomer, unassigned) [Example 126, (2R or S)-4,4,4-trifluoro-2-(4-fluorophenyl)-N-{4-[7-(pyridin-2-yl)-4-(2,2,2-trifluoroethoxy)-5H-pyrrolo[3,2-d]pyrimidin-6-yl]pyridin-2-yl}butanamide]	5.94 nM	> 20000 nM	
O=C(Nc1cc(-c2[nH]c3c(OCC(F)(F)F)ncnc3c2-c2ccccn2)ccn1)C(CC(F)(F)F)c1ccc(F)cc1 (single isomer, unassigned) [Example 127, (2R or S)-4,4,4-trifluoro-2-(4-fluorophenyl)-N-{4-[7-(pyridin-2-yl)-4-(2,2,2-trifluoroethoxy)-5H-pyrrolo[3,2-d]pyrimidin-6-yl]pyridin-2-yl}butanamide]	85 nM		> 20000 nM
O=C(Nc1cc(-c2[nH]c3c(OCC4CC4)ncnc3c2-c2ccccn2)ccn1)C(CC(F)F)c1ccc(F)cc1 (single isomer, unassigned) [Example 129, (2R or S)—N-{4-[4-(cyclopropylmethoxy)-7-(pyridin-2-yl)-5H-pyrrolo[3,2-d]pyrimidin-6-yl]pyridin-2-yl}-4,4-difluoro-2-(4-fluorophenyl)butanamide]	4.52 nM	9500 nM	

Source: patent US12692261B2, “Substituted heterocyclic compounds and therapeutic uses thereof” (Bayer Aktiengesellschaft, priority 2020, dated 2026)
